Reference: PMC5120274, “Characterization of the Annonaceous acetogenin, annonacinone, a natural product inhibitor of plasminogen activator inhibitor-1” (Scientific Reports, 2016)
Values joined by “and” are separate entries in the source; they are usually repeats but may differ in a detail not shown here. Equal values may be shown once.

Key:
PAI-1 Y79A = tested on: T1, PAI-1 Y79A; assay: chromogenic screening assay with PAI-1 mutant Y79A; assay type: biochemical
T1 construct: made in house
Protocol: (§1) Compounds from our local collection BioCIS and from the Prestwick compound library (Prestwick chemicals, Illkirch, FR), a collection containing only FDA approved drugs (around 4000 compounds in total) were tested in a chromogenic assay measuring the inhibition rate of tPA-catalyzed spectrozyme® tPA hydrolysis in the presence of PAI-1. Compounds (20 μL, final concentration 50 μM, 1% DMSO) were dispensed in a 96 well half area Greiner plate. A mixture containing 20 μL of PAI-1 (final concentration 20 nM) and 80 μL of Spectrozyme-tPA (final concentration 400 μM) was then added, and the mixture pre-incubated for 45 minutes at 37 °C. At the end of pre-incubation time, 90 μL of the mixture were added to another 96 well half area plate containing 10 μL tPA (final concentration 10 nM). The kinetic was then measured at 405 nm for 45 min at 37 °C in an Envision microplate reader. Progress curves were fitted using the pseudo first order equation to determine the apparent rate constant k.
(§2) Mutants were constructed as previously described. […] The effect of annonacinone was measured at 50 μM for each mutant in our chromogenic screening assay. […] For each mutant, the ratio between the apparent rate constants with and without 50 μM annonacinone were calculated and then compared to that of PAI-1 WT to determine the % of annonacinone activity.

PAI-1 K122A = tested on: T2, PAI-1 K122A; assay: chromogenic screening assay with PAI-1 mutant K122A; assay type: biochemical; details: for Annonacinone activity 50 μM (% WT): ratio of kapp relative to WT (100%)
T2 construct: made in house
Protocol: as §1
Mutants were constructed as previously described. Based on computer modelling, the following mutants were prepared, T79A, T94A, D95A, R118A and K122A. The effect of annonacinone was measured at 50 μM for each mutant in our chromogenic screening assay. Progress curves were fitted using the pseudo first order equation to determine the apparent rate constant k. For each mutant, the ratio between the apparent rate constants with and without 50 μM annonacinone were calculated and then compared to that of PAI-1 WT to determine the % of annonacinone activity.

PAI-1 [1] = biological target: T3, PAI-1 (Homo sapiens, UniProt P05121); assay: chromogenic screening assay: rate of tPA inhibition by PAI-1 (spectrozyme tPA hydrolysis); assay type: biochemical; details: mean ± SEM
T3 construct: purchased Stago BNL (Asnières sur Seine, FR)
T3 sequence (P05121 24-402): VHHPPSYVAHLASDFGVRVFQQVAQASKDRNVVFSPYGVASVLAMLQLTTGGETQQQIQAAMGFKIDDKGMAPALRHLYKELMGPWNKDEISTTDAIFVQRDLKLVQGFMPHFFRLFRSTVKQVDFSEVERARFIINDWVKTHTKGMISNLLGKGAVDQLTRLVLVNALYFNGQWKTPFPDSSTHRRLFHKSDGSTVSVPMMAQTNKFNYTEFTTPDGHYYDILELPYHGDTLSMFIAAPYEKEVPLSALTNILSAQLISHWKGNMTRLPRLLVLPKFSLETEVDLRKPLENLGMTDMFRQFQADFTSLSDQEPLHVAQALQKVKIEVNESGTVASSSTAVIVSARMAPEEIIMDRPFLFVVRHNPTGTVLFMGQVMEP
Protocol: as §1

PAI-1 T94A = tested on: T4, PAI-1 T94A; assay: chromogenic screening assay with PAI-1 mutant T94A; assay type: biochemical
T4 construct: made in house
Protocol: as §1, §2

PAI-1 [2] = tested on: T5, PAI-1; assay: elastase mediated cleavage of PAI-1 (latency transition) on SDS-PAGE; assay type: biochemical, human; details: up to 50 μM
T5 construct: purchased Stago BNL (Asnières sur Seine, FR)
Protocol: Selective cleavage of active PAI-1 by elastase was observed on SDS-PAGE. PAI-1 (5 μL, 2 μM) was incubated with or without compounds (200 μM, 5 μL, 5% DMSO) for 15 min at 37 °C. Elastase (5 μL, 1.4 μM) was then added and further incubated for 15 min at 37 °C. Reaction was stopped by addition of 4X loading buffer containing SDS and BME followed by immediate boiling. Samples were then analyzed on SDS-PAGE followed by silver staining.

PAI-1 [3] = biological target: T3, PAI-1; assay: thromboelastography (TEG) on pooled human plasma with tPA and PAI-1; assay type: biochemical
Protocol: 20 μL of CaCl2 (0.2 M), 10 μL of PAI-1 (final concentration 22 nM) and 10 μL of tested compounds were added in a TEG cup and pre-incubated for 20 min at room temperature. On the other hand, 1 mL of pooled citrated normal human plasma (pool of at least 10 healthy donors) was added to a vial containing 20 μL of Kaolin. 680 μl of the plasma/Kaolin mixture were then added to 20 μL of tPA (final concentration 9 nM). At the end of pre-incubation time, 320 μL of the plasma/tPA/kaolin mixture were transferred into the TEG cup and the thromboelastogram measured.

tPA = tested on: T6, tPA; assay: tPA-catalyzed substrate hydrolysis without PAI-1 (control); assay type: biochemical, human; details: control without PAI-1
T6 construct: purchased Stago BNL (Asnières sur Seine, FR)
Protocol: as §1, with “inhibition rate of tPA-catalyzed spectrozyme® tPA hydrolysis in the presence of PAI-1.” left out, “A mixture containing 20 μL of PAI-1 (final concentration 20 nM) and 80 μL of Spectrozyme-tPA (final concentration 400 μM) was then added, and the mixture pre-incubated for 45 minutes at 37 °C.” left out

human antithrombin = tested on: T7, human antithrombin; assay: continuous chromogenic assay: fondaparinux-catalyzed inhibition of factor Xa by antithrombin; assay type: biochemical; details: antithrombin pre-incubated with 50 μM annonacinone 20 min 37 °C; control buffer 7.9 × 10^−3
T7 construct: purchased LFB (Aclotin)
Protocol: 5 μM human α1-antitrypsin (Sigma) or human antithrombin (Aclotin®, LFB) were incubated with 50 μM annonacinone (or 0.5% DMSO in reaction buffer as control) for 20 min at 37 °C. The mixtures containing α1-antitrypsin were diluted in N-Methoxysuccinyl-Ala-Ala-Pro-Val p-nitroanilide (Sigma) containing solution and substrate hydrolysis kinetic was triggered by addition of neutrophil elastase (Sigma) to a final volume of 100 μL containing 13 nM α1-antitrypsin, 130 nM annonacinone, 82 μM chromogenic substrate and 5 nM neutrophil elastase. The mixtures containing antithrombin were diluted in fondaparinux (Arixtra®, GlaxoSmithKline) and CS-11(22)-FXa (Hyphen Biomed) containing solution and substrate hydrolysis kinetic was triggered by addition of factor Xa (Stago BNL) to a final volume of 100 μL containing 51 nM antithrombin, 510 nM annonacinone, 200 μM chromogenic substrate, 5 μM fondaparinux and 2 nM factor Xa.

PAI-1 D95A = tested on: T8, PAI-1 D95A; assay: chromogenic screening assay with PAI-1 mutant D95A; assay type: biochemical; details: ratio of kapp relative to WT (100%)
T8 construct: made in house
Protocol: as §1, §2

PAI-1 [4] = tested on: T5, PAI-1; assay: native PAGE analysis of PAI-1 polymerization; assay type: biochemical, human; details: increasing concentrations up to 50 μM, 30 min 37 °C
Protocol: PAI-1 (1 μM) was mixed with various concentration of annonacinone or DMSO 1% for 30 min at 37 °C. Samples were mixed with 1/3 volume of native gel sample buffer or LDS sample buffer. The former were subjected to BN-PAGE and the latter were fractioned by SDS-PAGE. Proteins band were visualized by silver staining.

PAI-1 R118A = tested on: T9, PAI-1 R118A; assay: chromogenic screening assay with PAI-1 mutant R118A; assay type: biochemical
T9 construct: made in house
Protocol: as §1, §2

[5] = ratio of kapp relative to WT (100%)
[6] = compound 50 μM, tPA 9 nM + PAI-1 22 nM

Question: Which results are given for CCCCCCCCCCCC[C@@H](O)[C@H]1CC[C@H]([C@H](O)CCCCC(=O)CCCCC[C@@H](O)CC2=C[C@H](C)OC2=O)O1 [Annonacinone]?
Answer: kapp Annonacinone 50 μM (PAI-1 Y79A; DMSO 1% 4,0 ± 1,0 × 10^−3, n = 4): 4,8 ± 0,9 × 10^−3 s^−1; Annonacinone activity 50 μM (% WT) (PAI-1 Y79A; ratio of kapp without/with annonacinone relative to WT (100%)): 12 ± 2 % WT; kapp Annonacinone 50 μM (PAI-1 K122A; DMSO 1% 1,9 ± 0,3 × 10^−3, n = 4): 3,5 ± 0,9 × 10^−4 s^−1; Annonacinone activity 50 μM (% WT) (PAI-1 K122A): 80 ± 13 % WT; Annonacinone activity 50 μM (% WT) (PAI-1 K122A; listed as annonacinone): no effect; kapp Annonacinone 50 μM (PAI-1 [1]; PAI-1 WT (Table 2 series), DMSO 1% 6,5 ± 0,6 × 10^−3, n = 4): 9,6 ± 1,0 × 10^−4 s^−1; IC50 (PAI-1 [1]; chromogenic screening assay, without vitronectin, n = 3, read-out: IC50): 9 ± 1 µM; kapp 50 μM (apparent rate constant of tPA inhibition by PAI-1) (PAI-1 [1]; compound 50 μM, 1% DMSO, PAI-1 20 nM, tPA 10 nM, DMSO 1% control 4.4 ± 0.3 × 10^-3, n = 3): 6.4 ± 0.7 × 10^-4 s^-1; kapp Annonacinone 50 μM (PAI-1 T94A; DMSO 1% 6,6 ± 0,9 × 10^−3, n = 4): 2,3 ± 0,4 × 10^−3 s^−1; Annonacinone activity 50 μM (% WT) (PAI-1 T94A; [5]): 42 ± 6 % WT; effect on latency transition of PAI-1 (PAI-1 [2]): No effects; IC50 (PAI-1 [3]; LY60 of three independent experiments plotted against concentration, read-out: IC50 from LY60 values): 2.3 ± 1 µM; effect on maximal amplitude (MA) and parameters of clot formation (R, K, angle) (PAI-1 [3]; TEG, human plasma): no significant effect; Angle (PAI-1 [3]; [6]): 73.5 °; K (clot formation time) (PAI-1 [3]; [6]): 1.6 min; MA (maximal amplitude) (PAI-1 [3]; [6]): 21.4 mm; R (clotting time) (PAI-1 [3]; [6]): 6 min; LY30 (clot lysis 30 minutes after maximal amplitude) (PAI-1 [3]; compound 50 μM, tPA 9 nM + PAI-1 22 nM, tPA alone 94.3%, tPA + PAI-1 0%): 87.1%; LY60 (clot lysis 60 minutes after maximal amplitude) (PAI-1 [3]; compound 50 μM, tPA 9 nM + PAI-1 22 nM, tPA alone 96.8%, tPA + PAI-1 0%): 94% and 93.6%; effect on tPA-catalyzed substrate hydrolysis without PAI-1 (tPA): no effect; kapp of factor Xa inhibition by fondaparinux-bound antithrombin (human antithrombin): 0.0083 s⁻¹; Annonacinone activity 50 μM (% WT) (PAI-1 D95A): 163 ± 24 % WT; effect on PAI-1 polymerization (PAI-1 [4]): did not permit to show formation of PAI-1 polymers; kapp Annonacinone 50 μM (PAI-1 R118A; DMSO 1% 6,0 ± 0,9 × 10^−3, n = 4): 3,4 ± 0,3 × 10^−4 s^−1; Annonacinone activity 50 μM (% WT) (PAI-1 R118A; [5]): 264 ± 40 % WT
